{
  "source": "paper PMC9794833",
  "about": "“Ligand recognition and activation of neuromedin U receptor 2” (Nature Communications, 2022)",
  "key": {"[1]": {"biological_target": "T1, NMU2 (Homo sapiens, UniProt Q9GZQ4)", "T1 construct": "HA signal peptide (N); expressed in transfected cells; host or cells: HEK 293F", "assay": "IP accumulation assay (IP-One Gq kit), WT NMU2", "format": "cell-based", "details": "10 μM R-PSOP", "experimental": "(§1) NMU2 constructs of WT and mutants were constructed into PTT5 vector (Invitrogen), as mentioned above. HEK 293F cells were transiently transfected with WT or mutants with total of 2000 ng plasmid DNA using transfection reagent (PEI MAX 2000, Polysciences) and cultivated at 37 °C with 5% CO2. Cells were collected after 48-h transfection. IP accumulation was tested by IP-One Gq assay kit (Cisbio Bioassays, 62IPAPEJ) following the instruction manual. In general, cells were resuspended with 1× HBSS buffer containing 20 mM LiCl (stimulation buffer) and seeded into the white 384-well microplates (Proxi Plate^TM-384 Plus, PerkinElmer) with a density of 20,000 per well. Cells were preincubated with 10^−5 M R-PSOP (provided by Boehringer Ingelheim company, Germany) and gradient concentration from 10^−4 to 10^−11 M of NMU-25 or gradient concentration 10^−4 to 10^−11 M of NMU-25 alone in stimulation buffer at 37 °C for 90 min. The cryptate-labeled anti-IP1 monoclonal antibody and d2-labeled IP1 were diluted with lysis & detection buffer (1:20) and added to each well by 3 μl, respectively. The plates were incubated at room temperature for 60 minutes and then read in a Synerg^TM H1 microplate reader (BioTek) with excitation at 330 nm and emission at 620 and 665 nm. The IP1 production was calculated by a standard dose–response curve and analyzed by GraphPad Prism 8.0."}, "[2]": {"biological_target": "T2, NMU2 F177C (Homo sapiens, UniProt Q9GZQ4, F177C)", "T2 construct": "HA signal peptide (N); expressed in transfected cells; host or cells: HEK 293F, transient transfection, PTT5 vector", "T2 sequence (Q9GZQ4 whole entry F177C)": "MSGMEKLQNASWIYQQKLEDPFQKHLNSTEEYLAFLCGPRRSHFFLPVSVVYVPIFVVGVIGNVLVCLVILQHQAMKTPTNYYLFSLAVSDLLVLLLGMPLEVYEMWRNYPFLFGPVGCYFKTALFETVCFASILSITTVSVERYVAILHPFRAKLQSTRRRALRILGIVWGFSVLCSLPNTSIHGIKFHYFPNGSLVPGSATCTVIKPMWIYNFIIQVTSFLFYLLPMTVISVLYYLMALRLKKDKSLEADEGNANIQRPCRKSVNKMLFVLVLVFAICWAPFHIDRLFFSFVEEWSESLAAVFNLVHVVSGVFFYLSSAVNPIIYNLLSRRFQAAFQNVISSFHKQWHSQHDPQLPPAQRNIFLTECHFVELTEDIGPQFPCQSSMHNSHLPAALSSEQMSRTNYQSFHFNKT", "assay": "IP accumulation assay, NMU2 mutant F177C", "format": "cell-based", "details": "10 μM R-PSOP", "experimental": "as §1"}, "[3]": {"biological_target": "NMU2", "details": "cited from earlier work"}, "[4]": {"biological_target": "T3, NMU2 H285A (Homo sapiens, UniProt Q9GZQ4, H285A)", "T3 construct": "HA signal peptide (N); expressed in transfected cells; host or cells: HEK 293F, transient transfection, PTT5 vector", "T3 sequence (Q9GZQ4 whole entry H285A)": "as the sequence (Q9GZQ4 whole entry F177C) above, with C177F, H285A counted along it", "assay": "IP accumulation assay, NMU2 mutant H285A", "format": "cell-based", "details": "10 μM R-PSOP", "experimental": "as §1"}, "[5]": {"biological_target": "T4, NMU2 F224A (Homo sapiens, UniProt Q9GZQ4, F224A)", "T4 construct": "HA signal peptide (N); expressed in transfected cells; host or cells: HEK 293F, transient transfection, PTT5 vector", "T4 sequence (Q9GZQ4 whole entry F224A)": "as the sequence (Q9GZQ4 whole entry F177C) above, with C177F, F224A counted along it", "assay": "IP accumulation assay, NMU2 mutant F224A", "format": "cell-based", "details": "10 μM R-PSOP", "experimental": "as §1"}, "[6]": {"biological_target": "T5, NMU2 E127A (Homo sapiens, UniProt Q9GZQ4, E127A)", "T5 construct": "HA signal peptide (N); expressed in transfected cells; host or cells: HEK 293F", "T5 sequence (Q9GZQ4 whole entry E127A)": "as the sequence (Q9GZQ4 whole entry F177C) above, with E127A, C177F counted along it", "assay": "IP accumulation assay, NMU2 mutant E127A", "format": "cell-based", "details": "10 μM R-PSOP", "experimental": "as §1"}, "[7]": {"biological_target": "T6, NMU2 F131L (Homo sapiens, UniProt Q9GZQ4, F131L)", "T6 construct": "HA signal peptide (N); expressed in transfected cells; host or cells: HEK 293F, transient transfection, PTT5 vector", "T6 sequence (Q9GZQ4 whole entry F131L)": "as the sequence (Q9GZQ4 whole entry F177C) above, with F131L, C177F counted along it", "assay": "IP accumulation assay, NMU2 mutant F131L", "format": "cell-based", "details": "10 μM R-PSOP", "experimental": "as §1"}, "[8]": {"biological_target": "T7, NMU2 E102A (Homo sapiens, UniProt Q9GZQ4, E102A)", "T7 construct": "HA signal peptide (N); expressed in transfected cells; host or cells: HEK 293F", "T7 sequence (Q9GZQ4 whole entry E102A)": "as the sequence (Q9GZQ4 whole entry F177C) above, with E102A, C177F counted along it", "assay": "IP accumulation assay, NMU2 mutant E102A", "format": "cell-based", "details": "10 μM R-PSOP", "experimental": "as §1"}},
  "data": [
    {"smiles": "O=C(Nc1ccccc1)Nc1cnc2c(c1)C[C@@]1(CN3CCC1CC3)O2", "note": "[R-PSOP]", "values": [
      {"measurement": "Ratio EC50(NmU-25 + R-PSOP)/EC50(NmU-25)", "setting": "[1]", "value": 13},
      {"measurement": "Ratio change EC50 ratio (WT)/EC50 ratio (mutant)", "setting": "[1]", "value": 1, "unit": "fold"},
      {"measurement": "Ratio EC50(NmU-25 + R-PSOP)/EC50(NmU-25)", "setting": "[2]", "value": 8},
      {"measurement": "Ratio change EC50 ratio (WT)/EC50 ratio (mutant)", "setting": "[2]", "value": 1.6, "unit": "fold"},
      {"measurement": "antagonistic effect of R-PSOP (in words)", "setting": "[2]; IP accumulation", "value": "decreased the antagonistic effect of R-PSOP significantly"},
      {"measurement": "Ki", "setting": "[3]", "value": 52, "unit": "nM"},
      {"measurement": "Ratio EC50(NmU-25 + R-PSOP)/EC50(NmU-25)", "setting": "[4]", "value": 20},
      {"measurement": "Ratio change EC50 ratio (WT)/EC50 ratio (mutant)", "setting": "[4]", "value": 0.65, "unit": "fold"},
      {"measurement": "Ratio EC50(NmU-25 + R-PSOP)/EC50(NmU-25)", "setting": "[5]", "value": 4},
      {"measurement": "Ratio change EC50 ratio (WT)/EC50 ratio (mutant)", "setting": "[5]", "value": 3, "unit": "fold"},
      {"measurement": "antagonist inhibition effect of R-PSOP (in words)", "setting": "[5]; IP accumulation", "value": "abolished"},
      {"measurement": "Ratio EC50(NmU-25 + R-PSOP)/EC50(NmU-25)", "setting": "[6]", "value": 2},
      {"measurement": "Ratio change EC50 ratio (WT)/EC50 ratio (mutant)", "setting": "[6]", "value": 6.5, "unit": "fold"},
      {"measurement": "Ratio EC50(NmU-25 + R-PSOP)/EC50(NmU-25)", "setting": "[7]", "value": 3},
      {"measurement": "Ratio change EC50 ratio (WT)/EC50 ratio (mutant)", "setting": "[7]", "value": 4, "unit": "fold"},
      {"measurement": "antagonistic effect of R-PSOP (in words)", "setting": "[7]; IP accumulation", "value": "decreased the antagonistic effect of R-PSOP significantly"},
      {"measurement": "Ratio EC50(NmU-25 + R-PSOP)/EC50(NmU-25)", "setting": "[8]", "value": 2},
      {"measurement": "Ratio change EC50 ratio (WT)/EC50 ratio (mutant)", "setting": "[8]", "value": 6.5, "unit": "fold"},
      {"measurement": "antagonist inhibition effect of R-PSOP (in words)", "setting": "[8]; IP accumulation", "value": "abolished"}
    ]}
  ]
}
